For `COc1cc(OC)c(OC)cc1CN1CCc2cc(O)ccc2C1`, the melting point (in general, the temperature, or range, at which the solid turns liquid) was in the range of 188 to 191 °C.

Consider `CCOC(=O)c1cc(=O)c2cc3c(c(CC4CO4)c2o1)CCCC3` (configuration not stated), for which the melting point was in the range of 138 to 140 °C.

`CN1CC(=O)Nc2ccccc2C1` returned a melting point of 113 to 114 °C.

In turn, `O=C1CCCCc2cc(OCc3ccccc3)c(O)cc21` had a melting point of 127 to 128 °C.

Molecule `CCCn1nc2c(N)nc3c(c2c1CCC1CCCCC1)CCCC3` had a melting point of 173 to 174 °C.

For the molecule `O=c1c(NCCCN(Cc2ccc(F)cc2)c2ccccn2)c(NCc2ccncc2)c1=O`, the melting point lay in the range of 198 to 201 °C.

Molecule `O=C(O)c1ccc(C2=NCCO2)cc1` had a melting point greater than 300 °C.

Regarding `C[C@@H](OS(C)(=O)=O)C(=O)N1C(=O)N(C)C[C@H]1C(=O)OCc1ccccc1`, the melting point was in the range of 98 to 102 °C.

As for `COc1cc(C(=O)NS(=O)(=O)c2ccccc2C)ccc1Cc1cccc2ccc(C(=O)NCC(C)C)cc12`, the melting point lay within 212 to 214 °C.

`COC(=O)COc1ccc(-c2ccc(C(=O)O)cc2)cc1-c1ccc2c(c1)C(C)(C)CCC2(C)C` had a melting point of 104 to 106 °C.

For `O=C(Cc1ccccc1[N+](=O)[O-])c1ccccc1F`, the melting point fell in the range of 84 to 86 °C.

The molecule `O=C(NC(c1ccccc1)c1ccccc1)c1c[nH]cn1` showed a melting point of 201 to 202 °C.

`COc1cc(OCc2ccncc2)ccc1/C=C/c1cc(/C=C/c2cc3ccccc3[nH]2)n[nH]1` displayed a melting point of 124 to 134 °C.

`CN(Cc1ccc2c(Br)c(OCc3nnn[nH]3)ccc2c1)C(=O)c1cn(C)c2ccccc12` returned a melting point of 227 to 228 °C.

The molecule `CC1(C)CC(=O)C(F)C(C)(C)C1` (configuration not stated) came in with a melting point of 27 to 31 °C.

As to `CC(C(=O)Nc1ccc(C(=O)c2cccs2)cc1)c1ccccc1` (configuration not stated), the melting point turned out to be 140 °C.

`CCCNC(=O)c1cc(-c2ccc(OC)cc2)nn(CC2CCCC2)c1=O` had a melting point of 110 °C.

On to `N[C@@H](C/C(=C\C1CCCC1)C(=O)O)C(=O)O`, for which the melting point lay in the range of 173 to 175 °C.

The molecule `O=Cc1csc(-c2ccccc2)c1` yielded a melting point of 64 to 65 °C.

`CCCc1c(C(=O)O)c(C(F)F)nc(C(F)(F)F)c1C(=O)O` displayed a melting point of 236 °C.

Consider `COc1ccc(C2=NC[C@@H](OC(=O)Nc3ccccc3)[C@H](c3ccccc3)O2)cc1` (racemic), for which the melting point came out at 132 °C.

`CN(C)C1(c2ccccc2)CCC(c2c[nH]c3ncccc23)CC1` (configuration not stated) yielded a melting point of 130 to 133 °C.

Consider `N#Cc1cnn2c(C(F)(F)F)cc(-c3ccccc3F)nc12`, for which the melting point came to 165 °C.

Turning to `COc1cc2nc(N3CCN(C(=O)C4CCCCC4)CC3)nc(N)c2cc1OC`, the melting point was 223 to 225 °C.

For `Cc1noc(NS(=O)(=O)c2ccccc2-c2ncccn2)c1C`, the melting point was 160 to 162 °C.

In turn, `CCN(CC)CCn1c(=O)c2cc(OC)c(OC)cc2c2cnc3cc4c(cc3c21)OCO4` showed a melting point of 159 to 160 °C.

The molecule `CCOC(=O)CCCOc1cccc2cc(/C(C)=C/C(=O)N3CCOCC3)oc12` yielded a melting point of 90 to 94.8 °C.

With `COC(=O)c1cccc(OC)c1OCCC#N`, the melting point lay within 74 to 75 °C.

`COCCCNc1cccc(Oc2ccc(-c3cn(C4CCOC4)c4ncnc(N)c34)cc2)c1C#N` (configuration not stated) had a melting point of 183 to 184 °C.

Turning to `O=C(O)c1ccc(S(=O)(=O)n2cccc2)s1`, the melting point was in the range of 191 to 194 °C.

In turn, `CCC(C)N(C(=O)c1cc(-c2ccccc2Cl)nc2ccccc12)C(C)CC` (configuration not stated) had a melting point of 120 °C.

Take `O=[N+]([O-])c1cccc(-c2nc(O)cc3cccnc23)c1`: the melting point lay within 262 to 265 °C.

As for `CS(=O)(=O)c1cc(OCC(O)CNC2CCC(c3ccc(C(=O)N4CCC(C(O)c5ccccc5)CC4)cc3)CC2)ccc1O` (configuration not stated), the melting point stood at 120 °C.

Take `C#CCOc1cc(NC(=O)C2NCC3CC32)c(F)cc1Cl` (configuration not stated): the melting point fell in the range of 113 to 115 °C.

`CCn1nccc1NC(=O)c1cc(C(=O)OC)c(O)c2ncc(Cc3ccc(F)cc3)cc12` gave a melting point of 219 to 220 °C.

The molecule `CCOC(=O)c1cn(-c2ccccc2)nc1NC=O` gave a melting point of 135 to 136 °C.

`C=C1OC(=NOC(C)=O)C(c2ccccc2)C(=O)N1C(C)(C)C(=O)Nc1cc(Cl)cc(Cl)c1` (configuration not stated) returned a melting point of 125 to 127 °C.

`Oc1ccc2c(c1)OCC(c1ccc(C(F)(F)F)cc1)C2c1ccc(OCCN2CCCCC2)cc1` (configuration not stated) showed a melting point of 117 to 119 °C.

As for `O=S(=O)(CC1(O)CN2CCC1CC2)c1ccc(-c2ccccc2)cc1` (configuration not stated), the melting point was 203 to 205 °C.

Consider `CCCCCCCCCCCC(C(=O)NN)C(C(=O)Nc1c(OC)cc(OC)cc1OC)c1ccccc1` (configuration not stated), for which the melting point lay in the range of 175 to 180 °C.

`O=C1C(c2ccccc2)=C(c2cccc(Cl)c2)C(=O)N1c1ccc(Cl)cc1` came in with a melting point of 51 °C.

`CC1(C)NC(=O)N(CCC(COc2ccc(-c3ccc(C#N)cc3)cc2)N(O)C=O)C1=O` (configuration not stated) displayed a melting point of 202 to 204 °C.

The molecule `Cc1ccc([N+](=O)[O-])c(C#N)c1C` had a melting point of 107 to 108 °C.

`CNc1nc(Nc2ccc(Cl)c(Cl)c2)ncc1NP(C)(C)=O` displayed a melting point of 258 °C.

As to `COc1cc(-c2nc3ccccc3n2Cc2ccc(Cl)c(Cl)c2)cc(OC)c1OC`, the melting point worked out at 145 °C.

`CC(C)(C)[Si](C)(C)Oc1ccc2c(c1)CCc1c-2c(=O)oc2cc(O[Si](C)(C)C(C)(C)C)ccc12` displayed a melting point of 145 to 147 °C.

`COc1ccc(-c2nc(Cn3ccnn3)cs2)cc1` returned a melting point of 89 to 94 °C.

Consider `CN1C(=O)Cc2c(Cl)cc(Cl)cc21`, for which the melting point lay within 144 to 145 °C.

Take `COc1cc(Nc2c(-c3ccc(S(C)(=O)=O)cc3)cnn(CC(F)(F)F)c2=O)cc(C(F)(F)F)c1`: the melting point lay in the range of 206 to 208 °C.

For the molecule `NC[C@@H]1C[C@@H](CC(=O)O)C(=O)N1CCCc1ccccc1`, the melting point fell in the range of 188 to 192 °C.

Take `COC1CCC2(C)C(=CC(=O)C3C4CCC(=O)C4(C)CCC32)C1` (configuration not stated): the melting point fell in the range of 227 to 229 °C.

For the molecule `N=C(N)c1ccc(N2CC(CN3CCC(CC(=O)O)(C(=O)O)CC3)OC2=O)cc1` (configuration not stated), the melting point stood at 145 °C.

Molecule `CC(C)OC1OC(=O)CC(C)(C)C1O` (configuration not stated) yielded a melting point of 50 °C.

`Cc1ncccc1CN(CCn1cc(C)c2occc2c1=O)Cc1ccc2c(c1)NC(=O)C(C)(C)C(=O)N2C1CC1` yielded a melting point of 191 to 193 °C.

In turn, `Cn1cc(S(=O)(=O)Cl)c(=O)c2ccc(F)cc21` came in with a melting point of 194 to 196 °C.

Regarding `CC1=NN(c2cc(Cl)c(Sc3ccc(Cl)cc3)c(Cl)c2)C(=O)NC1`, the melting point was in the range of 258 to 259 °C.

`CCCC(=O)n1ccc(-c2ccc(C(=O)N3Cc4cccn4Cc4ccccc43)cc2)n1` came in with a melting point of 105 to 110 °C.

In turn, `CCCCCC#CCC(CC#CCCCCC)(C(=O)NO)S(=O)(=O)c1ccc(OC)cc1` returned a melting point of 83 to 84 °C.

In turn, `CC(C)(C)OC(=O)CNC(=O)CC(C1CCCCC1)C1CCCCC1` showed a melting point of 72 to 74 °C.

For the molecule `CC(C)(C)C(F)(F)c1ccc(C[C@@H](C(=O)O)[C@@H](O)c2cccc(Cl)c2)cc1` (racemic), the melting point was 141 to 142 °C.

The molecule `CN1CCN(C(=NO)C2=Nc3ccc(Cl)cc3C(c3ccccc3F)=NC2)CC1` displayed a melting point of 198 to 200 °C.

The molecule `Nc1ncnc(N2CCc3ccccc3CC2)c1[N+](=O)[O-]` registered a melting point greater than 200 °C.

The molecule `Clc1cccc(OCCBr)c1Cl` returned a melting point of 51 to 56 °C.

In turn, `C=CCOC(=O)c1ccc(NC(=O)C(C(N)=O)c2ccc3c(c2)C(C)(C)CCC3(C)C)cc1` (configuration not stated) had a melting point of 210 to 211 °C.

Consider `Cc1cc(CN2CCC(N(C)S(=O)(=O)c3ccc(Nc4nccc(Nc5ccc(F)c(C)c5)n4)cc3)CC2)no1`, for which the melting point lay in the range of 172 to 173 °C.

Molecule `CC1CC(=O)NN=C1c1ccc2c(c1)NCCO2` (configuration not stated) came in with a melting point of 166 to 168 °C.

`CCCCc1nn(-c2cc([N+](=O)[O-])ccc2Br)c(=O)n1Cc1ccc(-c2ccccc2S(=O)(=O)NC(C)(C)C)cc1` came in with a melting point of 126 to 128 °C.

`CN1Cc2c(C#CC(C)(C)OC(=O)C(C)(C)C)ncn2-c2cccc(Cl)c2C1=O` gave a melting point of 132 to 133 °C.

`CC(C)CCN1C(=O)C(NC(=O)Nc2ccccc2)C(=O)N(CCN(C)C)c2ccccc21` (configuration not stated) returned a melting point of 159 to 161 °C.

`COc1cccc2c1CCC21NC(=O)c2ccccc21` (configuration not stated) came in with a melting point of 222 to 224 °C.

In the case of `Cc1cc(Nc2cccc(C(F)(F)F)c2)nc(-n2nc(C)cc2C)n1`, the melting point is 130 to 134 °C.

In the case of `CCCc1nc2c(N)nc(Cl)c(C)c2n1CCOCCN`, the melting point was in the range of 158 to 161 °C.

For `CCCc1nc2c(N)nc3ccccc3c2n1CC(C)C`, the melting point lay in the range of 191 to 192 °C.

`Cc1cc(C2=CC(=O)c3cccc(O)c3C2=O)c(C)[nH]1` returned a melting point of 195 to 196 °C.

In the case of `CCOC(=O)c1cc(O)c2c(OC(C)C)ccc(Br)c2c1`, the melting point amounted to 106 °C.

Consider `CCCCOc1cc(CCC(=O)O)ccc1-c1cccc(CN(C)C(=O)c2ccc(OC)cc2)c1`, for which the melting point is 39 to 41 °C.

`COc1c(F)c(F)c(C(=O)c2c(F)c(F)c(F)c(F)c2F)c(OC)c1F` came in with a melting point of 49 to 50 °C.

As for `CN1c2ccc(Cl)cc2C(c2ccccc2F)=Nc2cccnc21`, the melting point lay in the range of 136 to 138 °C.

The molecule `C#Cc1cnc2c(C)cc(OC(SC)C(=O)NC(C)(C#C)COC)cc2c1` (configuration not stated) showed a melting point of 108 to 109 °C.

As to `O=C(Nc1cc(Cl)c(O)c(Cl)c1)c1ccc(F)cc1O`, the melting point lay in the range of 223 to 224 °C.

Take `Cc1ccc(O)cc1NC(=O)CC12CC3CC(CC(C3)C1)C2`: the melting point is 255 to 256 °C.

As to `CCOC(=O)c1cn(-c2ccc(F)cc2)c2cc(-c3cc(C)no3)ccc2c1=O`, the melting point fell in the range of 214 to 216 °C.

Consider `O=C(O)CCCCCCCCCCCCCCCCCCCN1C(=O)C=CC1=O`, for which the melting point was 104 to 106 °C.

In the case of `COc1ccc(/C=C/C2=CCN(Cc3c[nH]c4ncccc34)CC2)cc1`, the melting point lay in the range of 201 to 204 °C.

`CC(C)c1nc2cc(NC(=O)c3c(C(=O)O)cnn3C)ccn2n1` yielded a melting point greater than 250 °C.

The molecule `Cc1c(Cc2cccc(C(F)(F)F)c2)sc2c(-c3cc(F)cc(C(=O)NCCO)c3)cccc12` came in with a melting point of 151 to 152 °C.

In the case of `CC(C)(C)C(=O)OCOC(=O)c1cccnc1Nc1cccc(C(F)(F)F)c1`, the melting point lay within 55 to 56 °C.

The record behind these values is a melting point compilation (Tetko et al.; mined from patent text by program, amines drawn as free bases though some values may be those of a salt).
